Experimental data: the supplement of paper PMC9673313

Compound: Clc1ccc2c(N3CCN(CCCN4CCN(c5ccnc6cc(Cl)ccc56)CC4)CC3)ccnc2c1 [piperaquine]
Experimental: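 Kenyan Plasmodium falciparum field isolates (2008-2021) were tested in a SYBR Green I growth-inhibition assay, either immediately ex vivo (fresh samples) or in vitro after culture adaptation. Cultures were at 1% parasitemia and 2% hematocrit, incubated with serial drug dilutions for 72 h at 37 °C (5% O2, 5% CO2), then read by fluorescence. IC50 was fitted by non-linear regression of the dose-response curve.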

| Test System | IC50 growth inhibition |
| --- | --- |
| 601-292 | 0.0322 µg/mL |
| KOM 16/08/0627 | 0.0067 µg/mL |
| MGT 21/08/0109 | 0.0004 µg/mL |
| KCH 10/06/0122 | 0.069 µg/mL |
| 601-0023 | 0.0124 µg/mL |
| KSI 16/07/908 | 0.00524 µg/mL |
| KDH 19/12/0156 | 0.0196 µg/mL |
| MGT 15/06/0090 | 0.0343 µg/mL |
| KSI 16/07/907 | 0.0116 µg/mL |
| KDH 14/05/1379 | 0.0283 µg/mL |
| KDH 14/05/1396 | 0.0267 µg/mL |
| KOM 18/11/0045 | 0.00771 µg/mL |
| MGT 14/03/0009 | 0.0624 µg/mL |
| KDH 21/08/0254 | 0.0379 µg/mL |
| KCH 10/05/0116 | 0.00881 µg/mL |
| KOM 15/04/398 | 0.00975 µg/mL |
| KDH 16/07/1830 | 0.00694 µg/mL |
| KOM 21/05/0272 | 0.0037 µg/mL |
| 601-0132 | 0.0171 µg/mL |
| KCH 17/09/372 | 0.00845 µg/mL |
| KDH 15/06/1658 | 0.0205 µg/mL |
| KCH 14/10/283 | 0.00595 µg/mL |

| Test System | IC50 growth inhibition |
| --- | --- |
| KOM 14/04/222 | 0.0193 µg/mL |
| 601-0154 | 0.0252 µg/mL |
| KCH 16/07/365 | 0.0312 µg/mL |
| KSI 15/08/809 | 0.00778 µg/mL |
| KDH 15/06/1657 | 0.00996 µg/mL |
| KDH 10/11/521 | 0.03 µg/mL |
| KOM 21/05/0262 | 0.0794 µg/mL |
| 601-0189 | 0.0275 µg/mL |
| KOM 21/03/0254 | 0.0021 µg/mL |
| KOM 21/02/0237 | 0.001 µg/mL |
| KOM 15/03/383 | 0.00453 µg/mL |
| KDH 20/01/0163 | 0.0245 µg/mL |
| MGT 14/03/0007 | 0.0064 µg/mL |
| KDH 20/01/0166 | 0.0768 µg/mL |
| KOM 21/05/0277 | 0.0353 µg/mL |
| KOM 19/12/155 | 0.0208 µg/mL |
| KOM 21/08/0353 | 0.0415 µg/mL |
| KSI 21/04/0059 | 0.208 µg/mL |
| MGT16/01/118 | 0.00304 µg/mL |
| KCH 10/06/119 | 0.0127 µg/mL |
| KOM 16/07/0610 | 0.00766 µg/mL |
| 601-209 | 0.0646 µg/mL |

| Test System | IC50 growth inhibition |
| --- | --- |
| KDH 21/02/0167 | 0.0233 µg/mL |
| KDH 21/02/0198 | 0.0345 µg/mL |
| KSI 14/03/507 | 0.00669 µg/mL |
| KDH 13/09/1180 | 0.00678 µg/mL |
| KOM 13/09/0051 | 0.0206 µg/mL |
| KOM 13/10/0073 D28/0 | 0.015 µg/mL |
| KCH19/06/0013 | 0.0146 µg/mL |
| KOM 19/12/151 | 0.0169 µg/mL |
| KSI 10/09/099 | 0.0338 µg/mL |
| KSI 19/12/0048 | 0.0353 µg/mL |
| MGT 21/08/0119 | 0.0896 µg/mL |
| KDH 14/05/1402 | 0.0119 µg/mL |
| KDH 19/02/0077 | 0.017 µg/mL |
| 601-0186 | 0.0596 µg/mL |
| KSI 21/04/0062 | 0.0102 µg/mL |
| KSI 10/11/118 | 0.0157 µg/mL |
| MGT 14/03/0012 | 0.00831 µg/mL |
| MDH 12/01/0062 | 0.019 µg/mL |
| MGT 14/03/0008 | 0.0272 µg/mL |
| KCH 18/09/0003 | 0.0047 µg/mL |
| MGT 21/05/0116 | 0.0046 µg/mL |
